# Reference: BindingDB's records for PubMed 8022403 (National Institute of Diabetes, Digestive and Kidney …, 1994)
# Key:
# Adenosine receptor A2a = Adenosine receptor A2a (Rattus norvegicus, UniProt P30543)
# Adenosine receptor A1 = molecular target: T1, Adenosine receptor A1 (Rattus norvegicus, UniProt P25099)
# T1 sequence (P25099 whole entry): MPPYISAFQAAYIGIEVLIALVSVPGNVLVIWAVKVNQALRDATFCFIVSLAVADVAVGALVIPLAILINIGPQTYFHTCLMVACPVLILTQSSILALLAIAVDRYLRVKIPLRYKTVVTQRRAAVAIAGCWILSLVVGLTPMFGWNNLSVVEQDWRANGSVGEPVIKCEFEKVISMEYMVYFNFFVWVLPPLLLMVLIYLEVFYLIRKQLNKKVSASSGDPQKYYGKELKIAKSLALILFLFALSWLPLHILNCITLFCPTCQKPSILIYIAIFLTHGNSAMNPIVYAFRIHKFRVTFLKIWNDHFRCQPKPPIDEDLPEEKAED
# Chain of Adenosine receptor A2a (P30543 whole entry): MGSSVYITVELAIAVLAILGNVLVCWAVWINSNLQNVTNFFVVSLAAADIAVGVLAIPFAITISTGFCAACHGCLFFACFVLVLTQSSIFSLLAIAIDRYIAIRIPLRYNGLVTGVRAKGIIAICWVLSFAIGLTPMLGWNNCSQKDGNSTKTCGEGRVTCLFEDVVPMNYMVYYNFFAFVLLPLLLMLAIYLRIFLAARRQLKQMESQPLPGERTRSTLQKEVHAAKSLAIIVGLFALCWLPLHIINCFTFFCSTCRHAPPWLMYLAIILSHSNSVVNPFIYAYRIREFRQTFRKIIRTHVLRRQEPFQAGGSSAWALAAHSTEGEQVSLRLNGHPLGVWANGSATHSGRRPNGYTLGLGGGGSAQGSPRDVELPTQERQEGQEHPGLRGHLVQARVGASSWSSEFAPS
Compound,Ki (Adenosine receptor A2a) [µM],Ki (Adenosine receptor A1) [µM]
"Cn1c(=O)[nH]c2c(ncn2C)c1=O [1,9-Dimethylxanthine]",> 10,> 10
OCC1OC(n2cnc3c(S)ncnc32)C(O)C1O (stereo not given) [NSC_1867],–,> 10
Nc1ncnc2c1ncn2[C@@H]1O[C@H](COP(=O)(O)O)[C@@H](O)[C@H]1O [adenosine 5 -monophosphate],> 10,–
Nc1ncnc2c1ncn2[C@@]1(CO)O[C@H](CO)[C@@H](O)[C@H]1O [beta-D-Psicofuranosyladenine],> 10,> 10
"Nc1nc(S)c2ncn(C3OC(CO)C(O)C3O)c2n1 (stereo not given) [2-azanyl-9-[5-(hydroxymethyl)-3,4-bis(oxidanyl)oxolan-2-yl]-3H-purine-6-thione]",> 10,> 10
"O=c1ccn(C2OC(COP(=O)(O)OP(=O)(O)O)C(O)C2O)c(=O)[nH]1 (stereo not given) [hydrogen ({[5-(2,4-dioxo-1,2,3,4-tetrahydropyrimidin-1-yl)-3,4-dihydroxyoxolan-2-yl]methylphosphonato}oxy)phosphonate]",> 10,> 10
Nc1ncnc2c1ncn2[C@@H]1O[C@H](CO)C[C@H]1O [3'-Deoxyadenosine (cordycepin)],> 10,> 10
Cn1cnc2[nH]c(=O)[nH]c(=O)c21 [7-Methylxanthine],> 10,> 10
CCCCCC[C@H]([C@H](C)O)n1cnc2c(N)ncnc21 (relative stereo) [3-(6-amino-9H-purin-9-yl)nonan-2-ol],> 10,0.455
CCNC(=O)[C@H]1O[C@@H](n2cnc3c(=O)[nH]cnc32)[C@H](O)[C@@H]1O [5'-N-ethylcarboxamidoinosine],> 10,> 10
Nc1nc2c(ncn2[C@H]2O[C@@H](COP(=O)(O)O)[C@H](O)[C@@H]2O)c(=O)[nH]1 [NSC_6804],85.1,27.8
"Cn1cnc2c(=O)[nH]c(=O)n(C)c21 [3,9-dimethyl-3,9-dihydro-1h-purine-2,6-dione]",> 10,> 10
Nc1ncnc2c1N([C@H]1O[C@@H](CO)[C@H](O)[C@@H]1O)CN2 [T-7-Riboside],–,27
"NCC1OC(n2cnc3c(N)ncnc32)C(O)C1O (stereo not given) [2-Aminomethyl-5-(6-amino-purin-9-yl)-tetrahydro-furan-3,4-diol]",38.5,–
O=c1[nH]c(=O)c2ncn(C3OC(COP(=O)(O)O)C(O)C3O)c2[nH]1 (stereo not given) [CAS_146-80-5],> 10,> 10
"C[S+](CC[C@H](N)C(=O)[O-])C[C@H]1O[C@@H](n2cnc3c(N)ncnc32)[C@H](O)[C@@H]1O (stereo partly drawn) [(2S)-2-amino-4-({[(2S,3S,4R,5R)-5-(6-amino-9H-purin-9-yl)-3,4-dihydroxyoxolan-2-yl]methyl}(methyl)sulfanylium)butanoate]",2.78,0.675
Nc1ncnc2c1nc(Br)n2C1OC(CO)C(O)C1O (stereo not given) [8-Bromoadenosine],22.7,> 10
O=c1[nH]c(=O)c2[nH]c(Cl)nc2[nH]1 [CAS_13548-68-0],> 10,> 10
CO[C@@H]1[C@H](O)[C@@H](CO)O[C@H]1n1cnc2c(N)ncnc21,> 10,> 10
Cc1cn([C@H]2C[C@H](O)[C@@H](CO)O2)c(=O)[nH]c1=O [thymidine],> 10,> 10
Nc1ccn([C@@H]2O[C@H](COP(=O)(O)OP(=O)(O)O)[C@@H](O)[C@H]2O)c(=O)n1 [5'-CDP],> 10,> 10
Nc1ncnc2c1ncn2[C@H]1C[C@H](O)[C@@H](CO)O1 [2'deoxyadenosine],> 10,> 10
